Experimental data reported in ChEMBL document CHEMBL1201862, “PubChem BioAssay data set” (2004).
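1) Cells in 96-well plates. 2) Compound, 48 h, 5 concentrations. 3) Linear interpolation between surrounding doses. 4) Unreached endpoint = highest concentration. Here, GI50 denotes the concentration required for 50% inhibition of growth.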 Active and inactive are the calls of the source. Rule as the data show it: active = GI50 up to about 1.1 µM and inactive = higher.

Key:
Assay in all cases: NCI-60 cell line screen, 48 h
HCT-15 = test system: HCT-15
786-0 = test system: 786-0
NCI-H23 = test system: NCI-H23
A498 = test system: A498
UO-31 = test system: UO-31
CAKI-1 = test system: CAKI-1
UACC-257 = test system: UACC-257
SK-OV-3 = test system: SK-OV-3
LOX IMVI = test system: LOX IMVI
HCT-116 = test system: HCT-116
TK-10 = test system: TK-10
A549 = test system: A549
SF-295 = test system: SF-295
SNB-19 = test system: SNB-19
SNB-75 = test system: SNB-75
SW-620 = test system: SW-620
NCI-H522 = test system: NCI-H522

SMILES	GI50 (HCT-15)	GI50 (786-0)	GI50 (NCI-H23)	GI50 (A498)	GI50 (UO-31)	GI50 (CAKI-1)	GI50 (UACC-257)	GI50 (SK-OV-3)	GI50 (LOX IMVI)	GI50 (HCT-116)	GI50 (TK-10)	GI50 (A549)	GI50 (SF-295)	GI50 (SNB-19)	GI50 (SNB-75)	GI50 (SW-620)	GI50 (NCI-H522)
CP(=O)(CCSc1ccccc1)c1ccccc1 (stereo unspecified)	> 100 µM	> 100 µM (inactive)	> 100 µM (inactive)	> 100 µM (inactive)	> 100 µM (inactive)	> 100 µM (inactive)	> 100 µM (inactive)	> 100 µM (inactive)	> 100 µM (inactive)	> 100 µM (inactive)	> 100 µM (inactive)	> 100 µM (inactive)	> 100 µM (inactive)	> 100 µM (inactive)	> 100 µM (inactive)	> 100 µM (inactive)	
O=C(CSc1nnc(Cc2ccccc2)o1)Nc1ccc([N+](=O)[O-])cc1	> 100 µM	> 100 µM (inactive)	89.7 µM (inactive)	> 100 µM (inactive)	74.1 µM (inactive)		> 100 µM (inactive)	> 100 µM (inactive)	61.7 µM (inactive)	> 100 µM (inactive)	62.2 µM (inactive)	59.4 µM (inactive)	52 µM (inactive)		> 100 µM (inactive)		82.2 µM (inactive)
N=C(N)N/N=C(/c1nc2ccc([N+](=O)[O-])cc2[nH]c1=O)C(O)c1ccc([N+](=O)[O-])cc1 (stereo unspecified)	11.5 µM	> 100 µM (inactive)	> 100 µM (inactive)		3.03 µM (inactive)	28.4 µM (inactive)	> 100 µM (inactive)	> 100 µM (inactive)	38.5 µM (inactive)	> 100 µM (inactive)		60.8 µM (inactive)	> 100 µM (inactive)	> 100 µM (inactive)	86.1 µM (inactive)	> 100 µM (inactive)	4.54 µM (inactive)
CSC(C1c2ccccc2N(C)c2[nH]c(=O)n(C)c(=O)c21)S(=O)(=O)c1ccc(C)cc1 (stereo unspecified)	64.3 µM	> 100 µM (inactive)	54.8 µM (inactive)	> 100 µM (inactive)	> 100 µM (inactive)	> 100 µM (inactive)	60 µM (inactive)	> 100 µM (inactive)	> 100 µM (inactive)	68.2 µM (inactive)	> 100 µM (inactive)	> 100 µM (inactive)	> 100 µM (inactive)	> 100 µM (inactive)	68.5 µM (inactive)	> 100 µM (inactive)	20.1 µM (inactive)
O=C1C2Nc3ccccc3SC2C(=O)N1c1ccccc1C(F)(F)F (stereo unspecified)	15.9 µM	25.2 µM (inactive)	24 µM (inactive)		38.2 µM (inactive)	24.9 µM (inactive)	> 100 µM (inactive)	23.7 µM (inactive)	40.2 µM (inactive)	24.5 µM (inactive)	42.1 µM (inactive)	20.2 µM (inactive)	14.9 µM (inactive)	18.1 µM (inactive)		21.4 µM (inactive)	15.3 µM (inactive)
CCOC(=O)/C(=C\c1cccs1)P(=O)(OCC)OCC	17.5 µM	21.9 µM (inactive)	18.9 µM (inactive)		19.7 µM (inactive)	18.2 µM (inactive)	23.2 µM (inactive)	38.9 µM (inactive)	15.7 µM (inactive)	19.2 µM (inactive)	36.6 µM (inactive)	21 µM (inactive)	29.4 µM (inactive)	53.2 µM (inactive)	35.6 µM (inactive)	20 µM (inactive)	14.2 µM (inactive)
CC(=O)OC1[C@H]2c3cc4c(cc3CN3CCC(C[C@@H]1OC(C)=O)C23)OCO4 (stereo partly specified)	> 75 µM	> 75 µM (inactive)	> 75 µM (inactive)		> 75 µM (inactive)		> 75 µM (inactive)	> 75 µM (inactive)	> 75 µM (inactive)	> 75 µM (inactive)	> 75 µM (inactive)	> 75 µM (inactive)	> 75 µM (inactive)	> 75 µM (inactive)	> 75 µM (inactive)	> 75 µM (inactive)	> 75 µM (inactive)
FC(F)(F)c1nc(-c2ccccc2)oc1Sc1oc(-c2ccccc2)nc1C(F)(F)F	> 100 µM	> 100 µM (inactive)	> 100 µM (inactive)	> 100 µM (inactive)	> 100 µM (inactive)	26.8 µM (inactive)	> 100 µM (inactive)	65.3 µM (inactive)	> 100 µM (inactive)	> 100 µM (inactive)	> 100 µM (inactive)	> 100 µM (inactive)	34.4 µM (inactive)	87.3 µM (inactive)	29.7 µM (inactive)	> 100 µM (inactive)	45.8 µM (inactive)
COc1ccc(NCC#N)cc1	> 100 µM	25.1 µM (inactive)	> 100 µM (inactive)	> 100 µM (inactive)	> 100 µM (inactive)		> 100 µM (inactive)	> 100 µM (inactive)	> 100 µM (inactive)	> 100 µM (inactive)	> 100 µM (inactive)	> 100 µM (inactive)	> 100 µM (inactive)	> 100 µM (inactive)	76.2 µM (inactive)	> 100 µM (inactive)	> 100 µM (inactive)
Cn1cc2c(n1)c(N/N=C/c1ccccc1)nn1nnnc21	> 100 µM	> 100 µM (inactive)	> 100 µM (inactive)	> 100 µM (inactive)	> 100 µM (inactive)	> 100 µM (inactive)	> 100 µM (inactive)	> 100 µM (inactive)	> 100 µM (inactive)	> 100 µM (inactive)	> 100 µM (inactive)	> 100 µM (inactive)	> 100 µM (inactive)	> 100 µM (inactive)	> 100 µM (inactive)	> 100 µM (inactive)	
O=c1c2ccccc2nc(-c2ccccc2)n1NC(=S)Nc1cccc(Cl)c1	> 100 µM	68.1 µM (inactive)	> 100 µM (inactive)	> 100 µM (inactive)	89.1 µM (inactive)	> 100 µM (inactive)	> 100 µM (inactive)	40.4 µM (inactive)	> 100 µM (inactive)	95.7 µM (inactive)	36.6 µM (inactive)	> 100 µM (inactive)	64.4 µM (inactive)		28.4 µM (inactive)	> 100 µM (inactive)	46.7 µM (inactive)
CC1(C)OC(=O)C(C#N)=C1/C=C/c1coc2ccc(Cl)cc2c1=O	27.4 µM	37.2 µM (inactive)	21 µM (inactive)		27.1 µM (inactive)	10.8 µM (inactive)	31.3 µM (inactive)	19.4 µM (inactive)	18.9 µM (inactive)	33 µM (inactive)		45.7 µM (inactive)	29.8 µM (inactive)	30.4 µM (inactive)	14.9 µM (inactive)	39.2 µM (inactive)	74 µM (inactive)
COc1cccc(NC(=O)CC(=O)N2NC(c3ccccc3)C(/N=N/c3cccc(C(=O)O)c3)C2=O)c1 (stereo unspecified)		> 100 µM (inactive)	> 100 µM (inactive)	> 100 µM (inactive)	27.5 µM (inactive)	89.5 µM (inactive)	> 100 µM (inactive)	> 100 µM (inactive)	> 100 µM (inactive)	> 100 µM (inactive)	> 100 µM (inactive)	> 100 µM (inactive)	> 100 µM (inactive)	28.1 µM (inactive)	> 100 µM (inactive)	> 100 µM (inactive)	
O=[N+]([O-])c1ccc(-c2ccc(-c3csc(Nc4ccccc4)n3)o2)cc1	19.7 µM	17.1 µM (inactive)	20.2 µM (inactive)	17.9 µM (inactive)	18.7 µM (inactive)	20.6 µM (inactive)	17.9 µM (inactive)	> 100 µM (inactive)	18.5 µM (inactive)	21.5 µM (inactive)	19.1 µM (inactive)	> 55 µM (inactive)	34.6 µM (inactive)	40 µM (inactive)	24.9 µM (inactive)	15.6 µM (inactive)	14.6 µM (inactive)
[O-]c1c2c(nn1-c1ccc(Cl)cc1)c1ccccc1c[n+]2Cc1ccccc1		33.3 µM (inactive)	> 100 µM (inactive)		> 100 µM (inactive)	> 100 µM (inactive)	> 100 µM (inactive)	40.2 µM (inactive)	> 100 µM (inactive)	> 100 µM (inactive)	> 100 µM (inactive)	63.4 µM (inactive)	78.9 µM (inactive)	> 100 µM (inactive)	32.2 µM (inactive)	> 100 µM (inactive)	58.9 µM (inactive)
COC(=O)NN=C1C(C)(C)C(=O)C1(C)C		> 100 µM (inactive)	> 100 µM (inactive)	> 100 µM (inactive)	> 100 µM (inactive)		> 100 µM (inactive)	> 100 µM (inactive)	> 100 µM (inactive)	> 100 µM (inactive)	> 100 µM (inactive)	> 100 µM (inactive)	> 100 µM (inactive)		> 100 µM (inactive)	> 100 µM (inactive)	> 100 µM (inactive)
c1ccc(N2CCN(CCN3CCc4c([nH]c5ccccc45)C3c3cccnc3)CC2)cc1 (stereo unspecified)	> 100 µM	33.1 µM (inactive)	> 100 µM (inactive)	> 100 µM (inactive)	23.8 µM (inactive)	> 100 µM (inactive)	> 100 µM (inactive)	24 µM (inactive)		46.8 µM (inactive)	> 100 µM (inactive)	> 100 µM (inactive)	80 µM (inactive)	> 100 µM (inactive)	3.07 µM (inactive)	> 100 µM (inactive)	> 100 µM (inactive)
C/C(=N/NC(N)=S)C(CN1CCOCC1)C(C1=C(O)c2ccccc2OC1)c1ccccc1 (stereo unspecified)		> 100 µM (inactive)	> 100 µM (inactive)	> 100 µM (inactive)	> 100 µM (inactive)	> 100 µM (inactive)	> 100 µM (inactive)	> 100 µM (inactive)	> 100 µM (inactive)	85.5 µM (inactive)	> 100 µM (inactive)	> 100 µM (inactive)	> 100 µM (inactive)	> 100 µM (inactive)	78 µM (inactive)	> 100 µM (inactive)	> 100 µM (inactive)
